Experimental findings from US10385019B2, “Inhibitors of EGFR and methods of use thereof” (Dana-Farber Cancer Institute, Inc., priority 2015, dated 2019) are described below.

Like-named read-outs stand apart in the source and are kept apart here.

This assay concerns the target EGFR T790M/L858R Ba/F3 cell line (Homo sapiens, UniProt P00533, T790M/L858R, cells depend on it). Kind of assay: Ba/F3 cell proliferation model. The assay is classed as cell-based, murine. The conditions noted are these: for Activity (% inhibition): combined with cetuximab (% cetuximab, 1.0 μM drug concentration with 1.0 μg/mL cetuximab). The text has this: The selectivity between wild-type EGFR and EGFR containing one or more mutations as described herein can also be measured using cellular proliferation assays where cell proliferation is dependent on kinase activity. For example, murine Ba/F3 cells transfected with a suitable version of wild-type EGFR (such as VIII; containing a WT EGFR kinase domain), or Ba/F3 cells transfected with L858R/T790M, Del/T790M/L718Q, L858R/T790M/L718Q, L858R/T790M/C797S, Del/T790M/C797S, L858R/T790M/I941R, or Exon 19 deletion/T790M can be used.
Cell lines are plated in media. The compounds of the present disclosure are then serially diluted and transferred to the cells. Cell viability is measured via a luminescent readout. Data is analyzed by non-linear regression curve-fitting. […]
The EGFR mutant L858R, Del E746_A750, L858R/T790M, DelE746_A750/T790M, L858R/T790M/C797S and Del/T790M/C797S Ba/F3 cells have been previously described (Zhou, W., Ercan, D., Chen, L., Yun, C. H., Li, D., Capelletti, M., Cortot, A. B., Chirieac, L., Iacob, R. E., Padera, R., et al. “Novel mutant-selective EGFR kinase inhibitors against EGFR T790M,” Nature 462, (2009), 1070-1074). All cell lines were maintained in RPMI 1640 (Cellgro; Mediatech Inc., Herndon, Calif.) supplemented with 10% FBS 100 units/mL penicillin, 100 units/mL streptomycin, and 2 mM glutamine. L858R cells were maintained in ACL-4 media (Invitrogen, Carlsbad, Calif.) supplemented with 5% FBS, 100 units/mL penicillin, 100 units/mL streptomycin, and 2 mM glutamine. The EGFR I941R mutation was introduced via site directed mutagenesis using the Quick Change Site-Directed Mutagenesis kit (Stratagene; La Jolla, Calif.) according to the manufacturer's instructions. All constructs were confirmed by DNA sequencing. The constructs were shuttled into the retroviral vector JP 1540 using the BD Creator™ System (BD Biosciences). Ba/F3 cells were infected with retrovirus and according to standard protocols, as described previously (Zhou et al, Nature 2009). Stable clones were obtained by selection in puromycin (2 μg/ml).
Growth and inhibition of growth was assessed by MTS assay and was performed according to previously established methods (Zhou et al., Nature 2009). The MTS assay is a colorimetric method for determining the number of viable cells that is based on the bioreduction of MTS by cells to a formazan product that is soluble in cell culture medium and can be detected spectrophotometrically. Ba/F3 cells of different EGFR genotypes were exposed to treatment for 72 hours and the number of cells used per experiment determined empirically and has been previously established (Zhou et al., Nature 2009). All experimental points were set up in six wells and all experiments were repeated at least three times. […] The curves were fitted using a non-linear regression model with a sigmoidal dose response.
Inhibition data of an EGFR T790M/L858R Ba/F3 cell line.

Sequence of EGFR T790M/L858R Ba/F3 cell line (P00533 whole entry T790M/L858R, the tested form may be a part): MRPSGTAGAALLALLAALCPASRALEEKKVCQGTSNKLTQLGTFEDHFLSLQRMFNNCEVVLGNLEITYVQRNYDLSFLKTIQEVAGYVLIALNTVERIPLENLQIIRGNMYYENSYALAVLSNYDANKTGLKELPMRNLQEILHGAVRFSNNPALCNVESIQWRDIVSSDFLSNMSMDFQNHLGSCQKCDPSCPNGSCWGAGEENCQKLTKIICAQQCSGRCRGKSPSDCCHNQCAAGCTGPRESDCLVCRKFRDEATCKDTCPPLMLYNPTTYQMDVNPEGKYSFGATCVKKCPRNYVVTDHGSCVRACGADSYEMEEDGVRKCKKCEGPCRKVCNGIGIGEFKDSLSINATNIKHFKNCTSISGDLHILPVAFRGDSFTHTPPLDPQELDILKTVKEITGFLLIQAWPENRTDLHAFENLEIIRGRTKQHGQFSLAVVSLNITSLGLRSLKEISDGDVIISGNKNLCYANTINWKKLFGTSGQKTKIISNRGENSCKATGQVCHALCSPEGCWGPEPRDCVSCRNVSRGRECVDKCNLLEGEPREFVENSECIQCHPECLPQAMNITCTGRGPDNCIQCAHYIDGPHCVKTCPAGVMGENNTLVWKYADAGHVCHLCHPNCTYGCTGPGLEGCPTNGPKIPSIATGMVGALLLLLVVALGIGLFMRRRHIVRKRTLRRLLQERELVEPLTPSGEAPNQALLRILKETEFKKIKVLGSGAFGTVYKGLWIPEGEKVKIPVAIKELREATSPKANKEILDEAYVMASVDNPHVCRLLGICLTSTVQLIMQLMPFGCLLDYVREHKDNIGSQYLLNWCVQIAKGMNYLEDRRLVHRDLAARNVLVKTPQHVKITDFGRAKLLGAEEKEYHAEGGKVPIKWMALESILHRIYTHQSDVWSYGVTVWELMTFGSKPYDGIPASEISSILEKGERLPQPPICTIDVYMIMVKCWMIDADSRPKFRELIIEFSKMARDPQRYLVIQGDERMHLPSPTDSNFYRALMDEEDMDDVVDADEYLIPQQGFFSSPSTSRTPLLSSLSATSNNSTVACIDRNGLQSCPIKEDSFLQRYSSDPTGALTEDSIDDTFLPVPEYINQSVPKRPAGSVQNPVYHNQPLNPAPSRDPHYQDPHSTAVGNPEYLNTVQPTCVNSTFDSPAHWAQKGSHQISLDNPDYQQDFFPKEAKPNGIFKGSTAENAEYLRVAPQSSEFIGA

As to `O=C(Nc1nccs1)[C@H](c1ccccc1)N1Cc2ccccc2C1=O` [Compound I-21, (S)-2-(1-oxoisoindolin-2-yl)-2-phenyl-N-(thiazol-2-yl) acetamide], the “Activity (% inhibition)” value was “B (a % inhibition of between about 50% to about 75%)”.

For the molecule `O=C(Nc1ncc(CCCN2CCOCC2)s1)[C@@H](c1ccccc1)N1Cc2ccccc2C1=O` [Compound I-44, (R)-N-(5-(3-morpholinopropyl)thiazol-2-yl)-2-(1-oxoisoindolin-2-yl)-2-phenylacetamide], the “Activity (% inhibition)” value was “A (a % inhibition of about 75%)”.

For `O=C(Nc1ncnc2[nH]ncc12)[C@@H](c1ccccc1)N1Cc2ccccc2C1=O` [Compound I-33, (R)-2-(1-oxoisoindolin-2-yl)-2-phenyl-N-(1H-pyrazolo[3,4-d]pyrimidin-4-yl)acetamide], the “Activity (% inhibition)” value was “A (a % inhibition of about 75%)”.

As for `O=C(Nc1ncc[nH]1)[C@H](c1ccccc1)N1Cc2ccccc2C1=O` [Compound I-35, (S)-N-(1H-imidazol-2-yl)-2-(1-oxoisoindolin-2-yl)-2-phenylacetamide], the “Activity (% inhibition)” value is “A (a % inhibition of about 75%)”.

As to `O=C(Nc1nccs1)[C@@H](c1ccccc1)N1Cc2ccc(-c3cccc(F)c3)cc2C1=O` [Compound I-76, (R)-2-(6-(3-fluorophenyl)-1-oxoisoindolin-2-yl)-2-phenyl-N-(thiazol-2-yl)acetamide], the “Activity (% inhibition)” value is “B (a % inhibition of between about 50% to about 75%)”.

As for `C[C@H](C(=O)Nc1nccs1)N1Cc2ccc(-c3ccc(N4CCN(C(=O)OC(C)(C)C)CC4)cc3)cc2C1=O` [Compound I-117, tert-butyl (R)-4-(4-(3-oxo-2-(1-oxo-1-(thiazol-2-ylamino)propan-2-yl)isoindolin-5-yl)phenyl)piperazine-1-carboxylate], the “Activity (% inhibition)” value is recorded as “A (a % inhibition of about 75%)”.

Regarding `O=C(Nc1nccs1)[C@@H](c1cc(F)ccc1O)N1Cc2ccc(-c3ccc(N4CCNCC4)cc3)cc2C1=O` [Compound I-126, (R)-2-(5-fluoro-2-hydroxyphenyl)-2-(1-oxo-6-(4-(piperazin-1-yl)phenyl)isoindolin-2-yl)-N-(thiazol-2-yl)acetamide], the “Activity (% inhibition)” value is given as “D (a % inhibition of between about 0% to about 25%)”. In addition, where the note is “compound alone, read-out: L858R/T790M IC50”, the GI50 lay in the range of 500 to 1000 nM. For the setting “read-out: L858R/T790M Cetuximab IC50, in combination with Cetuximab”, the GI50 is < 500 nM.

Take `O=C(Nc1cncnc1)[C@@H](c1ccccc1)N1Cc2ccc(-c3ccc4[nH]ccc4c3)cc2C1=O` [Compound I-134, (R)-2-(6-(1H-indol-5-yl)-1-oxoisoindolin-2-yl)-2-phenyl-N-(pyrimidin-5-yl)acetamide]: the “Activity (% inhibition)” value is “A (a % inhibition of about 75%)”.

Turning to `O=C(Nc1ncc(Br)s1)[C@@H](c1ccccc1)N1Cc2ccccc2C1=O` [Compound I-40, (R)-N-(5-bromothiazol-2-yl)-2-(1-oxoisoindolin-2-yl)-2-phenylacetamide], the “Activity (% inhibition)” value was “A (a % inhibition of about 75%)”.

With `CN(C)CCCCNC(=O)c1csc(NC(=O)[C@@H](c2ccccc2)N2Cc3ccccc3C2=O)n1` [Compound I-15, (R)-N-(4-(dimethylamino)butyl)-2-(2-(1-oxoisoindolin-2-yl)-2-phenylacetamido)thiazole-4-carboxamide], the “Activity (% inhibition)” value is reported as “A (a % inhibition of about 75%)”.

In the case of `O=C(Nc1nccs1)[C@@H](c1ccccc1)N1Cc2ccc(-c3cccs3)cc2C1=O` [Compound I-46, (R)-2-(1-oxo-6-(thiophen-2-yl)isoindolin-2-yl)-2-phenyl-N-(thiazol-2-yl)acetamide], the “Activity (% inhibition)” value is reported as “B (a % inhibition of between about 50% to about 75%)”.

In the case of `CN(C)CCCCNC(=O)c1cccc(-c2ccc3c(c2)C(=O)N([C@@H](C(=O)Nc2nccs2)c2ccccc2)C3)c1` [Compound I-89, (R)-N-(4-(dimethylamino)butyl)-(3-oxo-2-(2-oxo-1-phenyl-2-(thiazol-2-ylamino)ethyl)isoindolin-5-yl)benzamide], the “Activity (% inhibition)” value is listed as “B (a % inhibition of between about 50% to about 75%)”.

On to `C[C@H](C(=O)Nc1nccs1)N1Cc2ccc(-c3ccc4[nH]ccc4c3)cc2C1=O` [Compound I-116, (R)-2-(6-(1H-indol-5-yl)-1-oxoisoindolin-2-yl)-N-(thiazol-2-yl)propanamide], for which the “Activity (% inhibition)” value is on record as “A (a % inhibition of about 75%)”.

On to `O=C(Nc1nccs1)[C@@H](c1ccccc1)N1Cc2cc(Nc3ccccc3)ccc2C1=O` [Compound I-93, (R)-2-(1-oxo-5-(phenylamino)isoindolin-2-yl)-2-phenyl-N-(thiazol-2-yl)acetamide], for which the “Activity (% inhibition)” value is “A (a % inhibition of about 75%)”.

Regarding `O=C(NCCCN1CCOCC1)c1cccc(-c2ccc3c(c2)C(=O)N([C@@H](C(=O)Nc2nccs2)c2ccccc2)C3)c1` [Compound I-91, (R)-N-(3-morpholinopropyl)-3-(3-oxo-2-(2-oxo-1-phenyl-2-(thiazol-2-ylamino)ethyl)isoindolin-5-yl)benzamide], the “Activity (% inhibition)” value is recorded as “D (a % inhibition of between about 0% to about 25%)”.

In the case of `O=C(Nc1cc(C(F)(F)F)n[nH]1)[C@@H](c1ccccc1)N1Cc2ccccc2C1=O` [Compound I-30, (R)-2-(1-oxoisoindolin-2-yl)-2-phenyl-N-(3-(trifluoromethyl)-1H-pyrazol-5-yl)acetamide], the “Activity (% inhibition)” value is “A (a % inhibition of about 75%)”.

Consider `O=C(Nc1nccs1)C(c1cccc(F)c1)N1Cc2ccc(-c3ccc(CN4CCNCC4)cc3)cc2C1=O` (stereo not drawn) [Compound I-125, 2-(3-fluorophenyl)-2-(1-oxo-6-(4-(piperazin-1-ylmethyl)phenyl)isoindolin-2-yl)-N-(thiazol-2-yl)acetamide], for which the “Activity (% inhibition)” value is listed as “D (a % inhibition of between about 0% to about 25%)”.

For the molecule `O=C(NCC(O)CO)c1cc(N[C@@H](C(=O)Nc2nccs2)c2ccccc2)ccc1[N+](=O)[O-]` (stereo partly drawn) [Compound I-110, N-(2,3-dihydroxypropyl)-2-nitro-5-(((R)-2-oxo-1-phenyl-2-(thiazol-2-ylamino)ethyl)amino)benzamide], the “Activity (% inhibition)” value was “A (a % inhibition of about 75%)”.

In the case of `O=C(Nc1nc(Br)cs1)[C@@H](Cc1ccccc1)N1Cc2ccccc2C1=O` [Compound I-50, (R)-N-(4-bromothiazol-2-yl)-2-(1-oxoisoindolin-2-yl)-3-phenylpropanamide], the “Activity (% inhibition)” value is recorded as “A (a % inhibition of about 75%)”.

As to `O=C(Nc1cnoc1)[C@@H](c1ccccc1)N1Cc2ccc(-c3ccc4[nH]ccc4c3)cc2C1=O` [Compound I-130, (R)-2-(6-(1H-indol-5-yl)-1-oxoisoindolin-2-yl)-N-(isoxazol-4-yl)-2-phenylacetamide], the “Activity (% inhibition)” value is reported as “C (a % inhibition of between about 25% to about 50%)”.

With `O=C(Nc1cc(F)ccc1F)[C@@H](c1ccccc1)N1Cc2ccccc2C1=O` [Compound I-53, (R)-N-(2,5-difluorophenyl)-2-(1-oxoisoindolin-2-yl)-2-phenylacetamide], the “Activity (% inhibition)” value is given as “A (a % inhibition of about 75%)”.

Consider `O=C(O)c1ccc(-c2ccc3c(c2)C(=O)N([C@@H](C(=O)Nc2nccs2)c2ccccc2)C3)cc1` [Compound I-78, (R)-4-(3-oxo-2-(2-oxo-1-phenyl-2-(thiazol-2-ylamino)ethyl)isoindolin-5-yl)benzoic acid], for which the “Activity (% inhibition)” value is “A (a % inhibition of about 75%)”.
